The results in this text go back to patent publication US6573095B1, “Polynucleotides isolated from skin cells” (Genesis Research & Development Corporation Limited, priority 1998, dated 2003).

For this experiment, the system named is rat intestinal epithelial cells IEC-18. Put plainly: Growth of IEC-18 cells (MTT dye reduction). Format: cell-based. Particulars: titrated alone or with 750 ng/ml Apo-transferrin, 5 days, MTT (FIG. 7). The method, then:
The assay was performed in 96 well flat-bottomed plates in 0.1 ml DMEM (GIBCO-BRL Life Technologies) supplemented with 0.2% FCS. KS3a (SEQ ID NO: 348), apo-Transferrin, media and PBS-BSA were titrated either alone, with 750 ng/ml Apo-transferrin or with 750 ng/ml BSA, into the plates and 1×10^3 IEC-18 cells were added to each well. The plates were incubated for 5 days at 37° C. in an atmosphere containing 10% CO2. The degree of cell growth was determined by MTT dye reduction as described previously (J. Imm. Meth. 93:157-165, 1986).
A general note: Tetrazolium assays rely on reduction of a dye to a coloured formazan, in cell work by metabolically active cells.

For “KS3a: mature polypeptide of 17 amino acids of KS3 (SEQ ID NO: 348), prepared synthetically (GYSDGYQVCSRFGSKVPQFLN; Mouse)”, the “enhancement of transferrin-induced growth of IEC-18 cells” value is on record as “did not”.
